Measurements published in ChEMBL document CHEMBL4507262, “Data for DCP probe A-1596586” (2021).
The source made the active and inactive calls. The rule behind the calls is not given here.

Key:
[1] = test system: Mast/stem cell growth factor receptor Kit (Homo sapiens), P10721 [D816H]; settings: Compound concentration 1000.0 nM
[2] = molecular target: Cyclin-dependent kinase 16 (Homo sapiens) (UniProt Q00536); settings: Compound concentration 1000.0 nM
[3] = molecular target: Ribosomal protein S6 kinase alpha-4 (Homo sapiens) (UniProt O75676); settings: Compound concentration 1000.0 nM
[4] = test system: Tyrosine-protein kinase ABL1 (Homo sapiens), P00519 [Q252H]; settings: Compound concentration 1000.0 nM
[5] = molecular target: Muscarinic acetylcholine receptor M3 (Homo sapiens) (UniProt P20309); assay: M3 (h) Eurofins-Cerep binding assay; parameters: ligand concentration 0.2 nM; settings: filed as antagonist, Compound concentration 10.0 uM
[6] = molecular target: 5-hydroxytryptamine receptor 1B (Homo sapiens) (UniProt P28222); assay: 5-HT1B(h) Eurofins-Cerep binding assay; parameters: ligand concentration 1 nM; settings: filed as antagonist, Compound concentration 10.0 uM
[7] = molecular target: Calcium/calmodulin-dependent protein kinase type II subunit delta (Homo sapiens) (UniProt Q13557); settings: Compound concentration 1000.0 nM
[8] = molecular target: Tyrosine-protein kinase SYK (Homo sapiens) (UniProt P43405); settings: Compound concentration 1000.0 nM
[9] = molecular target: Vasopressin V1a receptor (Homo sapiens) (UniProt P37288); assay: V1 a (h) Eurofins-Cerep binding assay; parameters: ligand concentration 0.3 nM; settings: filed as agonist, Compound concentration 10.0 uM
[10] = molecular target: Ribosomal protein S6 kinase alpha-3 (Homo sapiens) (UniProt P51812); settings: Compound concentration 1000.0 nM
[11] = molecular target: Cyclin-dependent kinase 11A (Homo sapiens) (UniProt Q9UQ88); settings: Compound concentration 1000.0 nM
[12] = molecular target: Mitogen-activated protein kinase kinase kinase 19 (Homo sapiens) (UniProt Q56UN5); settings: Compound concentration 1000.0 nM
[13] = molecular target: Cyclin-dependent kinase 8 (Homo sapiens) (UniProt P49336); settings: Compound concentration 1000.0 nM
[14] = molecular target: Serine/threonine-protein kinase Chk2 (Homo sapiens) (UniProt O96017); settings: Compound concentration 1000.0 nM
[15] = molecular target: T1, Muscarinic acetylcholine receptor M5 (Homo sapiens) (UniProt P08912); assay: M5 (h) Eurofins-Cerep binding assay; parameters: ligand concentration 0.3 nM; settings: filed as antagonist, Compound concentration 10.0 uM
T1 sequence (whole entry): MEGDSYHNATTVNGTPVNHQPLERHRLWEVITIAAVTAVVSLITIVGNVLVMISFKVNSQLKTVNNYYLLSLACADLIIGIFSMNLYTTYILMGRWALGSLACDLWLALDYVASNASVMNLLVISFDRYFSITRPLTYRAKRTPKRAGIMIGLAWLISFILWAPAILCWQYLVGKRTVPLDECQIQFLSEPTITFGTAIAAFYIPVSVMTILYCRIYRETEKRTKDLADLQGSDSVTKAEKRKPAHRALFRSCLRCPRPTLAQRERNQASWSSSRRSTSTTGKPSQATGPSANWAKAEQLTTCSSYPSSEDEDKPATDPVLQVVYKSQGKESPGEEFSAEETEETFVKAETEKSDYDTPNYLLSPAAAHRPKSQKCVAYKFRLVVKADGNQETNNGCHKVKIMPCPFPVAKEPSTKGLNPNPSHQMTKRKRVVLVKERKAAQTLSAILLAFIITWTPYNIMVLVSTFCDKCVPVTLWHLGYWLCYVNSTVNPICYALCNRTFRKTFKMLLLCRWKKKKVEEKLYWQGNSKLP

[16] = molecular target: Serine/threonine-protein kinase pim-2 (Homo sapiens) (UniProt Q9P1W9); settings: Compound concentration 1000.0 nM
[17] = molecular target: Serine/threonine-protein kinase 32B (Homo sapiens) (UniProt Q9NY57); settings: Compound concentration 1000.0 nM
[18] = molecular target: Focal adhesion kinase 1 (Homo sapiens) (UniProt Q05397); settings: Compound concentration 1000.0 nM
[19] = molecular target: Prostaglandin G/H synthase 2 (Homo sapiens) (UniProt P35354); assay: COX2(h) Eurofins-Cerep enzyme and uptake assay; settings: Compound concentration 10.0 uM
[20] = molecular target: Bone morphogenetic protein receptor type-2 (Homo sapiens) (UniProt Q13873); settings: Compound concentration 1000.0 nM
[21] = molecular target: Activin receptor type-1 (Homo sapiens) (UniProt Q04771); settings: Compound concentration 1000.0 nM
[22] = molecular target: Serine/threonine-protein kinase N1 (Homo sapiens) (UniProt Q16512); settings: Compound concentration 1000.0 nM
[23] = molecular target: GABA-A receptor; alpha-1/beta-2/gamma-2 (Homo sapiens) (UniProt P14867+P47870+P18507); assay: GABAA1 (h) (alpha1,beta2,gamma2) Eurofins-Cerep binding assay; assay type: protein-complex assay; parameters: ligand concentration 15 nM; settings: filed as agonist, Compound concentration 10.0 uM
[24] = molecular target: Sulfonylurea receptors; K-ATP channels (Rattus norvegicus) (UniProt Q63563+P70673+Q63664+Q09429); assay: KATP channel Eurofins-Cerep binding assay; assay type: protein-complex assay; parameters: ligand concentration 0.1 nM; settings: filed as antagonist, Compound concentration 10.0 uM
[25] = molecular target: G protein-coupled receptor kinase 4 (Homo sapiens) (UniProt P32298); settings: Compound concentration 1000.0 nM
[26] = molecular target: Casein kinase II subunit alpha (Homo sapiens) (UniProt P68400); settings: Compound concentration 1000.0 nM
[27] = molecular target: RAC-alpha serine/threonine-protein kinase (Homo sapiens) (UniProt P31749); settings: Compound concentration 1000.0 nM
[28] = molecular target: Cystic fibrosis transmembrane conductance regulator (Homo sapiens, UniProt P13569); assay: CSE-HRP surface expression (Cell surface expression-horseradish peroxidase) assay
[29] = molecular target: Phosphorylase b kinase gamma catalytic chain, skeletal muscle/heart isoform (Homo sapiens) (UniProt Q16816); settings: Compound concentration 1000.0 nM
[30] = molecular target: Receptor-interacting serine/threonine-protein kinase 4 (Homo sapiens) (UniProt P57078); settings: Compound concentration 1000.0 nM
[31] = molecular target: NT-3 growth factor receptor (Homo sapiens) (UniProt Q16288); settings: Compound concentration 1000.0 nM
[32] = molecular target: Mitogen-activated protein kinase 11 (Homo sapiens) (UniProt Q15759); settings: Compound concentration 1000.0 nM
[33] = molecular target: Serine/threonine-protein kinase D1 (Homo sapiens) (UniProt Q15139); settings: Compound concentration 1000.0 nM
[34] = molecular target: Muscarinic acetylcholine receptor M3 (Homo sapiens) (UniProt P20309); settings: Compound concentration 10.0 uM
[35] = molecular target: Tyrosine-protein kinase BTK (Homo sapiens) (UniProt Q06187); settings: Compound concentration 1000.0 nM
[36] = molecular target: Maternal embryonic leucine zipper kinase (Homo sapiens) (UniProt Q14680); settings: Compound concentration 1000.0 nM
[37] = molecular target: Tyrosine-protein kinase Tec (Homo sapiens) (UniProt P42680); settings: Compound concentration 1000.0 nM

Chain of Muscarinic acetylcholine receptor M3 (Homo sapiens) (P20309 whole entry, looked up): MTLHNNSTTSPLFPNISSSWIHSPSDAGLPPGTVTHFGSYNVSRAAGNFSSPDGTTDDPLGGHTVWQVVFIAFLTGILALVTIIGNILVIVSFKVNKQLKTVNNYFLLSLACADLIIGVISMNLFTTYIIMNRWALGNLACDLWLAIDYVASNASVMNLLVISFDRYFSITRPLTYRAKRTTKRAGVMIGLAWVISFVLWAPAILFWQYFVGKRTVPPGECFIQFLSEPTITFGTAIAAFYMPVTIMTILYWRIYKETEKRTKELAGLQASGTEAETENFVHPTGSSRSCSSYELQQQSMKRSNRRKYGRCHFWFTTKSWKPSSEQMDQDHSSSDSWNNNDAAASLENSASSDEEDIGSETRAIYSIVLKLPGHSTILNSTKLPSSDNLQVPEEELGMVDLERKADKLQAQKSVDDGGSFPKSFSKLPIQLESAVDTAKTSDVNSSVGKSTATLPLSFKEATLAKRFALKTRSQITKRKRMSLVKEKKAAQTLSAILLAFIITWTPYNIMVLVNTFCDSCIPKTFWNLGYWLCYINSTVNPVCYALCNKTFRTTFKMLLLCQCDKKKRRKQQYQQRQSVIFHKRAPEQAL
Chain of Phosphorylase b kinase gamma catalytic chain, skeletal muscle/heart isoform (Homo sapiens) (Q16816 whole entry, looked up, canonical isoform): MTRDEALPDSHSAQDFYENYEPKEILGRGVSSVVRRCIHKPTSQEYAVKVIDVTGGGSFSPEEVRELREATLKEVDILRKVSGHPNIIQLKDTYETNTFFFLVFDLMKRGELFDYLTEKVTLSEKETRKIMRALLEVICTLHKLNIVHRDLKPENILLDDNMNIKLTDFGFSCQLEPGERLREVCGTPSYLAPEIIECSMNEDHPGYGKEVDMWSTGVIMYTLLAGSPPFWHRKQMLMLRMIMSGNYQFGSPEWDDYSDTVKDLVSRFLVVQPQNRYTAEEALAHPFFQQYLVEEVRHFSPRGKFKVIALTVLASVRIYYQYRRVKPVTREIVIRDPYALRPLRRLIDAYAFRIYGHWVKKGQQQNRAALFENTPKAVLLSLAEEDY
Chain of Serine/threonine-protein kinase 32B (Homo sapiens) (Q9NY57 whole entry): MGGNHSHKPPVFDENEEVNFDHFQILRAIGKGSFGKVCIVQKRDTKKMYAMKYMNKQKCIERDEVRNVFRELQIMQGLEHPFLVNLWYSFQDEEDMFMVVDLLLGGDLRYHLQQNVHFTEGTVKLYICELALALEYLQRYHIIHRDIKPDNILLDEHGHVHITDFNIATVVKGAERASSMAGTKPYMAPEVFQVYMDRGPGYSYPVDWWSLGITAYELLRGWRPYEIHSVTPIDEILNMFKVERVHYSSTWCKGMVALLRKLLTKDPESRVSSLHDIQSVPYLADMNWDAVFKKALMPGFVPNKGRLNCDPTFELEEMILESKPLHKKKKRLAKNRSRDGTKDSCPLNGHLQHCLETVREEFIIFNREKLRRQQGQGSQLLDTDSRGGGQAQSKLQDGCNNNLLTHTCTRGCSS
Chain of NT-3 growth factor receptor (Homo sapiens) (Q16288 32-839 limits assumed): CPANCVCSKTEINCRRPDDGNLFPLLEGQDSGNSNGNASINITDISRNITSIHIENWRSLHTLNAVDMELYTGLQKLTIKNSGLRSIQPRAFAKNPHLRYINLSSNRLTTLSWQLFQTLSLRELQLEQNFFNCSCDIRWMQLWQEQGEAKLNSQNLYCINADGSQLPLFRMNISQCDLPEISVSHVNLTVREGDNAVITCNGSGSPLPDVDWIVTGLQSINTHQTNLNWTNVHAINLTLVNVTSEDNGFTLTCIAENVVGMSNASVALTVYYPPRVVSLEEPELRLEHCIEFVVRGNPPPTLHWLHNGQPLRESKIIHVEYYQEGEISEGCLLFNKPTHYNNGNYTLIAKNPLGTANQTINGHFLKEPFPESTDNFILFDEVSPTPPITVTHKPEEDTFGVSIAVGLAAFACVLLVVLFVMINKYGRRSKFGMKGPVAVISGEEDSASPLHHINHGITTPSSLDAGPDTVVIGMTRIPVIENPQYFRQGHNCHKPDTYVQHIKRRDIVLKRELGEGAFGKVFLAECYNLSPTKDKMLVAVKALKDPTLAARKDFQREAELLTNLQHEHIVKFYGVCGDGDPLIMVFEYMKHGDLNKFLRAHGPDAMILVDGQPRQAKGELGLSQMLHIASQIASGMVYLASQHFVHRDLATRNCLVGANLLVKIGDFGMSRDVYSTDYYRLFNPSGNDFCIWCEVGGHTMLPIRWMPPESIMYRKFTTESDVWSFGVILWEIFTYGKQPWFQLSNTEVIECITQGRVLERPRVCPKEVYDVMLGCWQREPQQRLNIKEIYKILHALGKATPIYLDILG
Chain of Cyclin-dependent kinase 11A (Homo sapiens) (Q9UQ88 whole entry): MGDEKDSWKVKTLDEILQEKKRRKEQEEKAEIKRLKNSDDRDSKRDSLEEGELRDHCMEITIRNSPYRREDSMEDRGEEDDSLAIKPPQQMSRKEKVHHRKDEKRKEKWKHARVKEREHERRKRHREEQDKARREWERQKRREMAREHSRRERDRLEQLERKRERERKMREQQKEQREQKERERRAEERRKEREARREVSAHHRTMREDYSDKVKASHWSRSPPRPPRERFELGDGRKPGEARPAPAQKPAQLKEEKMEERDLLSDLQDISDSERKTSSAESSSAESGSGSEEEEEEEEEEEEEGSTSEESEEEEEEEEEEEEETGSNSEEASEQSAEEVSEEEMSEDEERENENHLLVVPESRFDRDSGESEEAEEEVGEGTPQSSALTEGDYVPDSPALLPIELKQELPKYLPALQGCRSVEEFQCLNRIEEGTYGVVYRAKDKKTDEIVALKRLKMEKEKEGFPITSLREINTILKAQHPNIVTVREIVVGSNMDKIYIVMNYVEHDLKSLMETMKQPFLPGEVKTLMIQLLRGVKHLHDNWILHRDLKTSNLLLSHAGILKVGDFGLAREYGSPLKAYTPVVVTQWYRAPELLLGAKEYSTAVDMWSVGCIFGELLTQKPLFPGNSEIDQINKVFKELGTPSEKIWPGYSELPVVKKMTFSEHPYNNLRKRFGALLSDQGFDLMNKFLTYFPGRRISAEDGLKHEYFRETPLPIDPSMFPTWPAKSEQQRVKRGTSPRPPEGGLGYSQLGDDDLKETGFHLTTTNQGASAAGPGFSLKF
Chain of Serine/threonine-protein kinase Chk2 (Homo sapiens) (O96017 whole entry): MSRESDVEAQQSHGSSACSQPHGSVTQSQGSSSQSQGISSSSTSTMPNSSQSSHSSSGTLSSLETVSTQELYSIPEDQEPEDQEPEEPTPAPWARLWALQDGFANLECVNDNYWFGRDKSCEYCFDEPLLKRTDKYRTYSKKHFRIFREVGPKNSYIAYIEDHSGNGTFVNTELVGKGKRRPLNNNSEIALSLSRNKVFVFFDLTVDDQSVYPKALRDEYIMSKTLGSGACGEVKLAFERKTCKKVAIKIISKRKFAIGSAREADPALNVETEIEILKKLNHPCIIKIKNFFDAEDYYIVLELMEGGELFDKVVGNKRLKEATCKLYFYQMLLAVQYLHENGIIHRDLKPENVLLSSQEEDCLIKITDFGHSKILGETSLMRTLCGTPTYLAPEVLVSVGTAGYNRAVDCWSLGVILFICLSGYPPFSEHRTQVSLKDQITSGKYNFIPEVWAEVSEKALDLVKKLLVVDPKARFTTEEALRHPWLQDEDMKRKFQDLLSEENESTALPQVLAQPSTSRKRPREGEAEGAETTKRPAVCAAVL
Chain of Prostaglandin G/H synthase 2 (Homo sapiens) (P35354 whole entry): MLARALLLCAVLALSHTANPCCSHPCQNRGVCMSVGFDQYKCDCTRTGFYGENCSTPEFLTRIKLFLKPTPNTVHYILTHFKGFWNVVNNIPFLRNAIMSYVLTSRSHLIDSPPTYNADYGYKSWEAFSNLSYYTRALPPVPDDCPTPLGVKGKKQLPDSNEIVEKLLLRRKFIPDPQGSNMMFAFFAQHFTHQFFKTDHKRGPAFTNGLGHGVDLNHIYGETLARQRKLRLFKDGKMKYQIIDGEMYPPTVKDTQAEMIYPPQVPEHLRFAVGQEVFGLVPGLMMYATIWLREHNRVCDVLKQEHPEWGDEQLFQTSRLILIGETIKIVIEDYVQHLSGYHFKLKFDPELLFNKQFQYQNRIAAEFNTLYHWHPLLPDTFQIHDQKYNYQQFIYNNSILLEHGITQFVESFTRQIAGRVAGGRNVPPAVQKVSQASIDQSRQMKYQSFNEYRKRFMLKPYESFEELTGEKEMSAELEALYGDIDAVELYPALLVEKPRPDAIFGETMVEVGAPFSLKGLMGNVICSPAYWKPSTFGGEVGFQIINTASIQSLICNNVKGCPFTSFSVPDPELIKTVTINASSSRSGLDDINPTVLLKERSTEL
Chain of Serine/threonine-protein kinase D1 (Homo sapiens) (Q15139 whole entry): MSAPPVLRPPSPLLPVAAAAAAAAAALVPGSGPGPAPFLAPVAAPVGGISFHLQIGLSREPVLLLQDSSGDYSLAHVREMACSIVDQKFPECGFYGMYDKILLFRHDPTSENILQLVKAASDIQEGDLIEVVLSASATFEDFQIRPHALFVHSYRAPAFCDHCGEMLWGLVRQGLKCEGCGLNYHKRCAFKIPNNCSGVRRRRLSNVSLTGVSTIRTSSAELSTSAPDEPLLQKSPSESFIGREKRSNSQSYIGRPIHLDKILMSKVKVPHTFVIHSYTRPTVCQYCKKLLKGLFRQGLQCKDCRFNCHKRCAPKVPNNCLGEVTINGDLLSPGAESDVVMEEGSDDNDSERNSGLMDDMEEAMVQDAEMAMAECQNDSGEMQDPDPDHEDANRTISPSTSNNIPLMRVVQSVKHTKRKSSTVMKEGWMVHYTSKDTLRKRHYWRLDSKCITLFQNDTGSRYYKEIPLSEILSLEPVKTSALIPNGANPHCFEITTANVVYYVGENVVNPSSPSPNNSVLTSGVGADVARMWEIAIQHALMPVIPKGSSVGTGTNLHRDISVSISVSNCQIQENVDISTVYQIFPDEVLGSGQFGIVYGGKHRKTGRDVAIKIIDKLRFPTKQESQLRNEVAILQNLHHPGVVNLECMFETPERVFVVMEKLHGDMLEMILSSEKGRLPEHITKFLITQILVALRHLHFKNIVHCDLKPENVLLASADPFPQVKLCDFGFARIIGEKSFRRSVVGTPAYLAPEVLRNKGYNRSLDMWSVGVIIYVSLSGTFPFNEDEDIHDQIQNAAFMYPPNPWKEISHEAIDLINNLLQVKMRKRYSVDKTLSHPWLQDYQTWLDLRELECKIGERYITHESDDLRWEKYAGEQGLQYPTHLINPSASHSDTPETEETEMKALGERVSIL

| SMILES | residual activity [1] [%] | residual activity [2] [%] | residual activity [3] [%] | residual activity [4] [%] | % Inhibition of Control Specific Binding (Mean n=2) [5] [%] | % Inhibition of Control Specific Binding (Mean n=2) [6] [%] | residual activity [7] [%] | residual activity [8] [%] | % Inhibition of Control Specific Binding (Mean n=2) [9] [%] | residual activity [10] [%] | residual activity [11] [%] | residual activity [12] [%] | residual activity [13] [%] | residual activity [14] [%] | % Inhibition of Control Specific Binding (Mean n=2) [15] [%] | residual activity [16] [%] | residual activity [17] [%] | residual activity [18] [%] | % Inhibition of Control Values (Mean n=2) [19] [%] | residual activity [20] [%] | also measured |
| --- | --- | --- | --- | --- | --- | --- | --- | --- | --- | --- | --- | --- | --- | --- | --- | --- | --- | --- | --- | --- | --- |
| COc1ccc2c(c1)O[C@H](c1ccc(OC)c(OC)c1)C[C@@H]2NC(=O)C1(c2ccc3c(c2)OC(F)(F)O3)CC1 [A-1596584] | 100 | 100 | 100 | 100 | -12.8 | -8.6 | 100 | 100 | 5.9 | 93 | 100 | 100 | 100 | 100 | -0.7 | 100 | 100 | 100 | -17.9 | 92 | residual activity [21]: 98%; residual activity [22]: 100%; % Inhibition of Control Specific Binding (Mean n=2) [23]: -86.2%; % Inhibition of Control Specific Binding (Mean n=2) [24]: 5.1%; residual activity [25]: 100%; residual activity [26]: 100%; residual activity [27]: 63%; EC50 [28]: 1000 nM (not active); residual activity [29]: 100%; residual activity [30]: 75%; residual activity [31]: 92%; residual activity [32]: 93%; residual activity [33]: 100%; inhibition [34]: 2.35%; residual activity [35]: 92%; residual activity [36]: 78%; residual activity [37]: 100% |
| COc1ccc2c(c1)O[C@@H](c1ccc(OC)c(OC)c1)C[C@H]2NC(=O)C1(c2ccc3c(c2)OC(F)(F)O3)CC1 [A-1596586] | 94 | 88 | 94 | 93 | -3.3 | 2.8 | 91 | 100 | 4.7 | 100 | 100 | 83 | 100 | 84 | 35.7 | 100 | 100 | 94 | -9.3 | 68 | residual activity [21]: 100%; residual activity [22]: 96%; % Inhibition of Control Specific Binding (Mean n=2) [23]: -27.5%; % Inhibition of Control Specific Binding (Mean n=2) [24]: -1.9%; residual activity [25]: 92%; residual activity [26]: 94%; residual activity [27]: 100%; EC50 [28]: 130 nM (active); residual activity [29]: 100%; residual activity [30]: 67%; residual activity [31]: 83%; residual activity [32]: 92%; residual activity [33]: 95%; inhibition [34]: 1.13%; residual activity [35]: 81%; residual activity [36]: 65%; residual activity [37]: 89% |
